Measurements taken from US6362207B1, “Methods of treating viral infections with benzimidazoles” (priority 1995, dated 2002).
Read-outs that look alike come from different tables or passages of the source.

How the values were obtained:
B-16 mouse melanoma = conditions: for Increased Life Span: B16 melanoma
Method: The data in Tables 1, 2 and 3 are reported in T/C which is interpreted using the following scale:
long term survivors for P388 is >30 days, for B16 it is >60 days. The NCI Measure of Success is T/C=125.
This study was performed in black mice injected i.p. with B-16 mouse melanoma which many researchers believe is the most predictive model for efficacy in humans. […] Death is the end point in this model.

SK-MES cells (lung) = assay: Apoptosis study (TdT assay) and cell growth; format: cell-based, human
Method: Summary of test results: The extent of apoptosis is measured in human tumor cell lines after treatment for 1, 2, 3 and 4 days with carbendazim. At each of these time points, the cells are harvested and assayed using the terminal deoxynucleotidyl transferase (TdT) assays. Both microscopy and flow cytometry were used for the TdT assay.
In MCF7, HT29, B16 and SK-MES cell lines, there was a concentration dependent effect on cell growth. […] After completion of the studies on the MCF7 and HT29 cell lines, it was evident that the 0.1 μg/ml concentration had little effect on either apoptosis or cell growth. Therefore subsequent assays were with 5 μg/ml instead of 0.1 μg/ml.
The growth of SK-MES cells was slowed done by all concentrations of carbendazim past day 1.

MX1 breast cells = assay: MTT cell viability test, breast tumor cells; format: cell-based, human; conditions: 5 day incubation
HIV = assay: microbe, parasite or virus in culture; format: cell-based

COC(=O)Nc1nc2ccccc2[nH]1 [carbendazim, 2-methoxycarbonylamino-benzimidazole] was tested, and the T/C (B-16 mouse melanoma; 500 mg/kg twice weekly) was 141, the “weight change (%)” value (B-16 mouse melanoma; 500 mg/kg twice weekly) was −0.64% and the T/C (B-16 mouse melanoma; 1000 mg/kg twice weekly) was 176. For the same compound, the “weight change (%)” value (B-16 mouse melanoma; 1000 mg/kg twice weekly) was −4.75%, the T/C (B-16 mouse melanoma; 1250 mg/kg twice weekly) was 124 and the “weight change (%)” value (B-16 mouse melanoma; 1250 mg/kg twice weekly) was “+1.99%”. For the same compound, the T/C (B-16 mouse melanoma; 2000 mg/kg twice weekly) was 169, the “weight change (%)” value (B-16 mouse melanoma; 2000 mg/kg twice weekly) was −11.63% and the T/C (B-16 mouse melanoma; 2500 mg/kg twice weekly) was 169. For the same compound, the “weight change (%)” value (B-16 mouse melanoma; 2500 mg/kg twice weekly) was “+3.16%”, the T/C (B-16 mouse melanoma; 5000 mg/kg twice weekly) was 198 and the “weight change (%)” value (B-16 mouse melanoma; 5000 mg/kg twice weekly) was −0.64%. The “Increased Life Span” value (B-16 mouse melanoma; 1000 mg/kg) was 131%, the “Increased Life Span” value (B-16 mouse melanoma; 2000 mg/kg) was 163% and the “Increased Life Span” value (B-16 mouse melanoma; 4000 mg/kg) was 187%. For the same compound, the cell growth (SK-MES cells (lung); all concentrations, past day 1) was “slowed done”, the percent of apoptosis (SK-MES cells (lung); days 1-4 microscopic TdT assay, days 3 and 4 flow cytometry) was “concentration-response effect” and the “EC-50 Result” value (MX1 breast cells; MX1, first column) was 0.829 ppm. The “EC-50 Result” value (MX1 breast cells; MX1, second column) was 0.856 ppm, the “therapeutic index (TI), ratio of toxic dose to efficacious dose” value (HIV) was 1.8 and the inhibition at 4 µg/mL (HIV; Human immunodeficiency virus 1, read-out: inhibition of viral replication) was 100%.
